Reference: ChEMBL document CHEMBL4725325, “Synthesis and biological evaluation of parthenolide derivatives with reduced toxicity as potential inhibitors of the NLRP3 inflammasome” (Bioorg Med Chem Lett, 2020)
The source made the active and inactive calls. No cut-off for these calls is given here.

Columns and labels:
[1] = biological target: T1, NACHT, LRR and PYD domains-containing protein 3 (Homo sapiens, UniProt Q96P20); experiment: Inhibition of NLRP3 inflammasome in human primary glial cells assessed as reduction in LPS-induced IL-1beta release; type: cell-based
[2] = Cytotoxicity against mouse J774.A1 cells; type: cell-based; conditions: read-out: TC50 (the source's name)
[3] = biological target: NACHT, LRR and PYD domains-containing protein 3 (Mus musculus, UniProt Q8R4B8); experiment: Inhibition of NLRP3 inflammasome in mouse J774.A1 cells assessed as reduction in LPS-induced IL-1beta release; type: cell-based
[4] = Therapeutic index, ratio of IC50 for cytotoxicity against mouse J774.A1 cells to IC50 for antiinflammatory activity in mouse J774.A1 cells; type: toxicity, cell-based
Mus musculus [5] = experiment: In vivo inhibition of NLRP3 in mouse assessed as reduction in LPS-induced IL-1beta release in peritoneal fluid at 30 mg/kg, po; type: functional, organism-based
[6] = Cytotoxicity against human HEK-293T cells; type: cell-based; conditions: read-out: TC50 (the source's name)
[7] = biological target: T1, NACHT, LRR and PYD domains-containing protein 3; experiment: Inhibition of NLRP3 inflammasome in human primary glial cells assessed as reduction in LPS-induced IL-1beta release at 1 to 10 uM; type: cell-based; conditions: dose microM 1-10
Mus musculus [8] = experiment: In vivo inhibition of NLRP3 in mouse assessed as reduction in LPS-induced IL-1beta release in serum at 30 mg/kg, po; type: functional, organism-based
[9] = biological target: NACHT, LRR and PYD domains-containing protein 3 (Mus musculus) (UniProt Q8R4B8); experiment: Inhibition of NLRP3 inflammasome in mouse J774.A1 cells assessed as reduction in LPS-induced IL-1beta release at 1 to 10 uM; type: cell-based; conditions: dose microM 1-10
[10] = biological target: NACHT, LRR and PYD domains-containing protein 3 (Mus musculus) (UniProt Q8R4B8); experiment: Inhibition of NLRP3 inflammasome in mouse J774.A1 cells assessed as reduction in LPS-induced IL-1beta release at 10 uM in presence of PTL/MCL; type: cell-based
[11] = biological target: T1, NACHT, LRR and PYD domains-containing protein 3; experiment: Inhibition of NLRP3 inflammasome in human primary glial cells assessed as reduction in LPS-induced IL-1beta release at 10 uM in presence of PTL/MCL; type: cell-based; conditions: Primary neuron
[12] = biological target: T1, NACHT, LRR and PYD domains-containing protein 3; experiment: Inhibition of NLRP3 inflammasome in human primary glial cells assessed as reduction in LPS-induced IL-1beta release at 10 uM; type: cell-based; conditions: Primary neuron
[13] = biological target: NACHT, LRR and PYD domains-containing protein 3 (Mus musculus) (UniProt Q8R4B8); experiment: Inhibition of NLRP3 inflammasome in mouse J774.A1 cells assessed as reduction in LPS-induced IL-1beta release at 10 uM; type: cell-based
[14] = biological target: T1, NACHT, LRR and PYD domains-containing protein 3; experiment: Inhibition of NLRP3 inflammasome activation (unknown origin) assessed as reduction in IL-1beta by Western blot analysis; conditions: dose microM 0.2-5
[15] = biological target: T1, NACHT, LRR and PYD domains-containing protein 3; experiment: Inhibition of NLRP3 inflammasome activation (unknown origin) assessed as reduction in ASC level at 0.2 to 5 uM by Western blot analysis; conditions: dose microM 0.2-5
[16] = biological target: T1, NACHT, LRR and PYD domains-containing protein 3; experiment: Inhibition of NLRP3 inflammasome activation (unknown origin) assessed as reduction in procaspase1 at 0.2 to 5 uM by Western blot analysis; conditions: dose microM 0.2-5
[17] = biological target: T1, NACHT, LRR and PYD domains-containing protein 3; experiment: Inhibition of NLRP3 inflammasome activation (unknown origin) assessed as reduction in proIL-1beta at 0.2 to 5 uM by Western blot analysis; conditions: dose microM 0.2-5
[18] = biological target: T1, NACHT, LRR and PYD domains-containing protein 3; experiment: Inhibition of NLRP3 inflammasome activation (unknown origin) assessed as reduction in caspase 1 p20 level by Western blot analysis; type: tissue-based; conditions: Primary neuron, dose microM 0.2-5

T1 sequence (Q96P20 whole entry, the tested form may be a part): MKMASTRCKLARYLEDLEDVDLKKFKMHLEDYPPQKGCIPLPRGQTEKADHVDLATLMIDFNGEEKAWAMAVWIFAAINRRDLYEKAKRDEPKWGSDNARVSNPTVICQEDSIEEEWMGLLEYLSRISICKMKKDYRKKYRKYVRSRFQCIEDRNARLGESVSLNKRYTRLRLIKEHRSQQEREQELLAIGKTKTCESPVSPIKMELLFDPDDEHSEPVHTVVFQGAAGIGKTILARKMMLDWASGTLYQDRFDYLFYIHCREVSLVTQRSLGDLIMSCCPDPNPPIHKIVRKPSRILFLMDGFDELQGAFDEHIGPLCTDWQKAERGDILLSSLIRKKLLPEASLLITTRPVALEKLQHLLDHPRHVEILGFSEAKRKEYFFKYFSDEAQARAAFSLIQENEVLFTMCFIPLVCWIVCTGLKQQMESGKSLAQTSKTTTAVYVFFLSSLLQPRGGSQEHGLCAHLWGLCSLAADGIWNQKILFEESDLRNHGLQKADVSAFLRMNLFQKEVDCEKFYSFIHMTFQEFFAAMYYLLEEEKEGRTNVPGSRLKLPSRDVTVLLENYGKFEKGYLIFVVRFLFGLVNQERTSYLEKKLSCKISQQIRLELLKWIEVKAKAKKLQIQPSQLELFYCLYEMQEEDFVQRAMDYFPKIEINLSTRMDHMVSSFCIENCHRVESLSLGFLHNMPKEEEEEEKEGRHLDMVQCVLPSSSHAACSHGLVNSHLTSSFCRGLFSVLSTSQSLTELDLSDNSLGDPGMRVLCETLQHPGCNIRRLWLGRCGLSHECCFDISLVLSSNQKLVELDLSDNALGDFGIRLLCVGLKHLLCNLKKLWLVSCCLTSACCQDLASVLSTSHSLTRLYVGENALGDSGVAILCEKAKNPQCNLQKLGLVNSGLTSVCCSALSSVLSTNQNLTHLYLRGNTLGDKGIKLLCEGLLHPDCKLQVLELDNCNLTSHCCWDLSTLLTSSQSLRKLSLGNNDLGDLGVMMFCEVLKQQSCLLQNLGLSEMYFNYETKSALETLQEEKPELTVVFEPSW
Sequence of NACHT, LRR and PYD domains-containing protein 3 (Mus musculus, UniProt Q8R4B8) (Q8R4B8 whole entry, the tested form may be a part): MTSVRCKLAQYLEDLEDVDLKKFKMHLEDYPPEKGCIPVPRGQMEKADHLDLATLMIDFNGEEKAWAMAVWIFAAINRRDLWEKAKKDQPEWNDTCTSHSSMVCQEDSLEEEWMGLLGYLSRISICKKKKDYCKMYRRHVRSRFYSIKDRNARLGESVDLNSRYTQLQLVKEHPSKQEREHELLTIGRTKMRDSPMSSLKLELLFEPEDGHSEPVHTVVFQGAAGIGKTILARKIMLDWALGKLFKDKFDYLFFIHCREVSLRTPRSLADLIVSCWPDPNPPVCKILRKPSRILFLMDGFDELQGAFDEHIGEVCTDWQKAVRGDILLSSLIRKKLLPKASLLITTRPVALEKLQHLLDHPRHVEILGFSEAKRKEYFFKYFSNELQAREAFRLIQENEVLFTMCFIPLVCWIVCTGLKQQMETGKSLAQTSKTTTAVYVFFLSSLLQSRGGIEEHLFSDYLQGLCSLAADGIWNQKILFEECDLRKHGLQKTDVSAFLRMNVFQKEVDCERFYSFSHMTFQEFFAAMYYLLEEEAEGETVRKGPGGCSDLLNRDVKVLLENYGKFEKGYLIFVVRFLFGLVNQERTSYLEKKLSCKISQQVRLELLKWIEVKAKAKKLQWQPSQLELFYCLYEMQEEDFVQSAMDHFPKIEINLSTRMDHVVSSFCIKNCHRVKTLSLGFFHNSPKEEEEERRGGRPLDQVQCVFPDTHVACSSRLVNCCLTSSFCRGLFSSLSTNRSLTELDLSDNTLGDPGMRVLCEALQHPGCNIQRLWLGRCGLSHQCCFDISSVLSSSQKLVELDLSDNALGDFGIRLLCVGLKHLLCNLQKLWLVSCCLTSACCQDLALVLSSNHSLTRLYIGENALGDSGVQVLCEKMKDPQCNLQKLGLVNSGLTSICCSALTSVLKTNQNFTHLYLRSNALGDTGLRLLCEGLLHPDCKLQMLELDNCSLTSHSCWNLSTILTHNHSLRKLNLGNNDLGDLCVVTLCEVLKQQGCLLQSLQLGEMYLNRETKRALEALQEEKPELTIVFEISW
Sequence of NACHT, LRR and PYD domains-containing protein 3 (Mus musculus) (Q8R4B8 whole entry, the tested form may be a part): as above

With `C=C1C(=O)O[C@@H]2[C@H]3O[C@@]3(C)CC/C=C(\C)CC[C@@H]12` the IC50 [1] was 1.8 µM, the CC50 [2] was 14.3 µM and the IC50 [3] was 1.4 µM. The selectivity ratio [4] was 10.2, the inhibition (Mus musculus [5]) was “Active” and the CC50 [6] was 29.9 µM. The inhibition [7] was “Dose-dependent effect”, the inhibition (Mus musculus [8]) was “Active” and the inhibition [9] was “Dose-dependent effect”.
In the case of `C=C1CCC[C@]2(C)CC[C@H]3C(=C)C(=O)O[C@@H]3[C@@H]12`, the inhibition [7] is reported as “Dose-dependent effect” and the inhibition [9] is reported as “Dose-dependent effect”.
For `C=C1C(=O)O[C@@H]2/C=C(\C)CC/C=C(\C)CC[C@@H]12`, the inhibition [9] was “Dose-dependent effect”.
In the case of `CC1=C2CC[C@@](C)(O)[C@@H]2[C@H]2OC(=O)[C@@H](CN(C)CCOc3no[n+]([O-])c3S(=O)(=O)c3ccccc3)[C@@H]2CC1`, the IC50 [1] is reported as 1.7 µM, the CC50 [2] is reported as 59.5 µM and the IC50 [3] is reported as 0.5 µM. It also gave a selectivity ratio [4] of 119 and a CC50 [6] of 56.5 µM.
Work on `C/C1=C\CC[C@]2(C)O[C@@H]2[C@H]2OC(=O)[C@@H](CN(C)CCCOc3no[n+]([O-])c3S(=O)(=O)c3ccccc3)[C@@H]2CC1` yielded an IC50 [1] of 2.2 µM, a CC50 [2] of 66.6 µM and an IC50 [3] of 0.4 µM. The selectivity ratio [4] was 166 and the CC50 [6] was 166 µM.
For `C=C1C(=O)O[C@@H]2[C@H]3C(C)=CCC[C@]3(C)CC[C@@H]12`, the inhibition [7] was “Dose-dependent effect” and the inhibition [9] was “Dose-dependent effect”.
With `CC1=C2CC[C@@](C)(O)[C@@H]2[C@H]2OC(=O)[C@@H](CN(C)CC(=O)Nc3nc4ccc(OC(F)(F)F)cc4s3)[C@@H]2CC1` the inhibition [10] was “Active” and the inhibition [11] was “Active”.
`C=C1C(=O)O[C@H]2[C@H]1CCC(C)=C1CC[C@@](C)(O)[C@@H]12` [MICHELIOLIDE] showed an IC50 [1] of 5.9 µM, a CC50 [2] of 21.9 µM and an IC50 [3] of 2.3 µM. The selectivity ratio [4] was 9.5, the CC50 [6] was 51.7 µM and the inhibition [7] was “Dose-dependent effect”. For the same molecule, the inhibition [9] was “Dose-dependent effect”.
In the case of `Nc1nc2ccc(OC(F)(F)F)cc2s1`, the inhibition [12] is reported as “inactive”, the inhibition [13] is reported as “inactive” and the inhibition [10] is reported as “Active”. The inhibition [11] was “Active”.
In the case of `C/C1=C\CC[C@]2(C)O[C@@H]2[C@H]2OC(=O)[C@@H](CN(C)CCOc3no[n+]([O-])c3S(=O)(=O)c3ccccc3)[C@@H]2CC1`, the IC50 [1] is reported as 1 µM, the CC50 [2] is reported as 24.1 µM and the inhibition [14] is reported as “Dose-dependent effect”. For the same molecule, the IC50 [3] was 0.3 µM, the inhibition [15] was “inactive” and the selectivity ratio [4] was 80.3. For the same molecule, the inhibition [16] was “inactive”, the inhibition (Mus musculus [5]) was “Active” and the CC50 [6] was 69.8 µM. The inhibition (Mus musculus [8]) was “Active”, the inhibition [17] was “inactive” and the inhibition [18] was “Dose-dependent effect”.
With `CC1=C2CC[C@@](C)(O)[C@@H]2[C@H]2OC(=O)[C@@H](CN(C)CCCOc3no[n+]([O-])c3S(=O)(=O)c3ccccc3)[C@@H]2CC1` the IC50 [1] was 2.3 µM, the CC50 [2] was 68.5 µM and the IC50 [3] was 0.49 µM. It also gave a selectivity ratio [4] of 140 and a CC50 [6] of 106 µM.
In the case of `O=S(=O)(c1ccccc1)c1no[n+]([O-])c1S(=O)(=O)c1ccccc1`, the IC50 [1] is reported as 1.9 µM, the CC50 [2] is reported as 11.4 µM and the IC50 [3] is reported as 0.93 µM. For the same molecule, the selectivity ratio [4] was 12.2 and the CC50 [6] was 22.4 µM.
For `C/C1=C\CC[C@]2(C)O[C@@H]2[C@H]2OC(=O)[C@@H](CN(C)CC(=O)Nc3nc4ccc(OC(F)(F)F)cc4s3)[C@@H]2CC1`, the inhibition [10] was “Active” and the inhibition [11] was “Active”.
